Patent publication US6921770B2 (priority 2000, dated 2005)

Tested on: rice blast fungi
Type: in vivo, Pyricularia grisea

In order of falling “Inhibiting Ratio (%) (at 250 ppm)” value:
1. Cl.Cn1c(CC(=O)Nc2ccc(Br)cc2)csc1=Nc1ccc(F)cc1Cl [Compound 140, 2-(2-chloro-4-fluorophenylimino)-3-methyl-4-[N-(4-bromophenyl)carbamoylmethyl]-1,3-thiazol-4-ine hydrochloride]  99%
2. Cl.Cn1c(CC(=O)Nc2ccc(Br)cc2)csc1=Nc1ccc(Oc2ccccc2)cc1 [Compound 141, 2-(4-phenoxyphenylimino)-3-methyl-4-[N-(4-bromophenyl)carbamoylmethyl]-1,3-thiazol-4-ine hydrochloride]  99%
3. Cl.Cn1c(CC(=O)Nc2ccccc2F)csc1=Nc1cccc(Br)c1 [Compound 153, 2-(3-bromophenylimino)-3-methyl-4-[N-(2-fluorophenyl)carbamoylmethyl]-1,3-thiazol-4-ine hydrochloride]  99%
4. Cc1cc(Br)ccc1N=c1scc(CC(=O)Nc2ccc(Br)cc2)n1C.Cl [Compound 142, 2-(4-bromo-2-methylphenylimino)-3-methyl-4-[N-(4-bromophenyl)carbamoylmethyl]-1,3-thiazol-4-ine hydrochloride]  98%
5. Cl.Cn1c(CC(=O)Nc2ccc(Br)cc2)csc1=Nc1ccc([N+](=O)[O-])cc1 [Compound 144, 2-(4-nitrophenylimino)-3-methyl-4-[N-(4-bromophenyl)carbamoylmethyl]-1,3-thiazol-4-ine hydrochloride]  97%
6. CC(C)Oc1cc(N=c2scc(CC(=O)Nc3ccc(Br)cc3)n2C)c(F)cc1Cl.Cl [Compound 185, 2-(4-chloro-5-isopropoxy-2-fluorophenylimino)-3-methyl-4-[N-(4-bromophenyl)carbamoylmethyl]-1,3-thiazol-4-ine hydrochloride]  97%
7. COc1ccc(NC(=O)Cc2csc(=Nc3cc(OC(C)C)c(Cl)cc3F)n2C)cc1.Cl [Compound 208, 2-(4-chloro-5-isopropoxy-2-fluorophenylimino)-3-methyl-4-[N-(4-methoxyphenyl)carbamoylmethyl]-1,3-thiazol-4-ine hydrochloride]  97%
8. COc1ccc(NC(=O)Cc2csc(=Nc3ccc(OC(F)(F)F)cc3)n2C)cc1.Cl [Compound 209, 2-(4-trifluoromethoxyphenylimino)-3-methyl-4-[N-(4-methoxyphenyl)carbamoylmethyl]-1,3-thiazol-4-ine hydrochloride]  97%
9. Cc1ccc(N=c2scc(CC(=O)Nc3ccc(C)c(Cl)c3)n2C)c(C)c1.Cl [Compound 227, 2-(2,4-dimethylphenylimino)-3-methyl-4-[N-(3-chloro-4-methylphenyl)carbamoylmethyl]-4-thiazoline hydrochloride]  97%
10. Cc1ccc(NC(=O)Cc2csc(=Nc3ccc(C#N)cc3)n2C)cc1Cl.Cl [Compound 228, 2-(4-cyanophenylimino)-3-methyl-4-[N-(3-chloro-4-methylphenyl)carbamoylmethyl]-4-thiazoline hydrochloride]  97%
11. CCCCc1ccc(N=c2scc(CC(=O)Nc3ccc(Br)cc3)n2C)cc1.Cl [Compound 147, 2-[4-(n-butyl)phenylimino]-3-methyl-4-[N-(4-bromophenyl)carbamoylmethyl]-1,3-thiazol-4-ine hydrochloride]  96%
12. Cl.Cn1c(CC(=O)Nc2ccccc2F)csc1=Nc1ccc(Cl)cc1F [Compound 150, 2-(4-chloro-2-fluorophenylimino)-3-methyl-4-[N-(2-fluorophenyl)carbamoylmethyl]-1,3-thiazol-4-ine hydrochloride]  96%
13. CC(C)Oc1cc(N=c2scc(CC(=O)Nc3ccccc3F)n2C)c(F)cc1Cl.Cl [Compound 151, 2-(4-chloro-2-fluoro-5-isopropoxyphenylimino)-3-methyl-4-[N-(2-fluorophenyl)carbamoylmethyl]-1,3-thiazol-4-ine hydrochloride]  96%
14. Cl.Cn1c(CC(=O)Nc2ccc(Cl)cc2)csc1=Nc1ccc(F)c(Cl)c1 [Compound 155, 2-(3-chloro-4-fluorophenylimino)-3-methyl-4-[N-(4-chlorophenyl)carbamoylmethyl]-1,3-thiazol-4-ine hydrochloride]  96%
15. Cl.Cn1c(CC(=O)Nc2ccc(Cl)cc2)csc1=Nc1cccc(Br)c1 [Compound 156, 2-(3-bromophenylimino)-3-methyl-4-[N-(4-chlorophenyl)carbamoylmethyl]-1,3-thiazol-4-ine hydrochloride]  96%
16. Cl.Cn1c(CC(=O)Nc2ccc([N+](=O)[O-])cc2)csc1=Nc1ccc(OC(F)(F)F)cc1 [Compound 176, 2-(4-trifluoromethoxyphenylimino)-3-methyl-4-[N-(4-nitrophenyl)carbamoylmethyl]-4-thiazoline hydrochloride]  96%
17. Cl.Cn1c(CC(=O)Nc2ccc(Br)cc2)csc1=Nc1ccc(Br)cc1 [Compound 143, 2-(4-bromophenylimino)-3-methyl-4-[N-(4-bromophenyl)carbamoylmethyl]-1,3-thiazol-4-ine hydrochloride]  95%
18. Cl.Cn1c(CC(=O)Nc2ccc(Br)cc2)csc1=Nc1ccccc1F [Compound 148, 2-(2-fluorophenylimino)-3-methyl-4-[N-(4-bromophenyl)carbamoylmethyl]-1,3-thiazol-4-ine hydrochloride]  95%
19. Cl.Cn1c(CC(=O)Nc2ccccc2F)csc1=Nc1ccc(F)c(Cl)c1 [Compound 149, 2-(3-chloro-4-fluorophenylimino)-3-methyl-4-[N-(2-fluorophenyl)carbamoylmethyl]-1,3-thiazol-4-ine hydrochloride]  95%
20. COc1ccc(NC(=O)Cc2csc(=Nc3cc(C)ccc3OC)n2C)cc1.Cl [Compound 198, 2-(2-methoxy-5-methylphenylimino)-3-methyl-4-[N-(4-methoxyphenyl)carbamoylmethyl]-1,3-thiazol-4-ine hydrochloride]  95%
21. Cc1ccc(N=c2scc(CC(=O)Nc3ccc(Cl)cc3)n2C)c(C)c1.Cl [Compound 154, 2-(2,4-dimethylphenylimino)-3-methyl-4-(N-(4-chlorophenyl)carbamoylmethyl)-1,3-thiazol-4-ine hydrochloride]  93%
22. COc1ccc(NC(=O)Cc2csc(=Nc3ccc(Cl)cc3F)n2C)cc1.Cl [Compound 207, 2-(4-chloro-2-fluorophenylimino)-3-methyl-4-[N-(4-methoxyphenyl)carbamoylmethyl]-1,3-thiazol-4-ine hydrochloride]  93%
23. Cl.Cn1c(CC(=O)Nc2ccc(C#N)cc2)csc1=Nc1ccc(OC(F)(F)F)cc1 [Compound 215, 2-(4-trifluoromethoxyphenylimino)-3-methyl-4-[N-(4-cyanophenyl)carbamoylmethyl]-4-thiazoline hydrochloride]  93%
24. Cl.Cn1c(CC(=O)Nc2ccc(Cl)cc2)csc1=Nc1ccc(F)cc1F [Compound 159, 2-(2,4-difluorophenylimino)-3-methyl-4-[N-(4-chlorophenyl)carbamoylmethyl]-1,3thiazol-4-ine hydrochloride]  92%
25. Cc1ccc(NC(=O)Cc2csc(=Nc3cc(OC(C)C)c(Cl)cc3F)n2C)cc1.Cl [Compound 168, 2-(4-chloro-5-isopropoxy-2-fluorophenylimino)-3-methyl-4-[N-(4-methylphenyl)carbamoylmethyl-]-1,3-thiazol-4-ine hydrochloride]  92%
26. Cl.Cn1c(CC(=O)Nc2ccc(OC(F)(F)F)cc2)csc1=Nc1ccc(F)cc1F [Compound 192, 2-(2,4-difluorophenylimino)-3-methyl-4-[N-(4-trifluoromethoxyphenyl)carbamoylmethyl]-1,3-thiazol-4-ine hydrochloride]  92%
27. COc1ccc(NC(=O)Cc2csc(=Nc3ccc(C)cc3C)n2C)cc1.Cl [Compound 196, 2-(2,4-dimethylphenylimino)-3-methyl-4-[N-(4-methoxyphenyl)carbamoylmethyl]-1,3-thiazol-4-ine hydrochloride]  92%
28. CC(C)Oc1cc(N=c2scc(CC(=O)Nc3ccc(C#N)cc3)n2C)c(F)cc1Cl.Cl [Compound 226, 2-(4-chloro-5-isopropoxy-2-fluorophenylimino)-3-methyl-4-[N-(4-cyanophenyl)carbamoylmethyl]-4-thiazoline hydrochloride]  92%
29. Cl.Cn1c(CC(=O)Nc2ccc(Cl)cc2)csc1=Nc1ccc(Cl)cc1F [Compound 158, 2-(4-chloro-2-fluorophenylimino)-3-methyl-4-[N-(4-chlorophenyl)carbamoylmethyl]-1,3-thiazol-4-ine hydrochloride]  90%
30. Cc1ccc(NC(=O)Cc2csc(=Nc3ccc(Br)cc3)n2C)cc1.Cl [Compound 162, 2-(4-bromophenylimino)-3-methyl-4-[N-(4-methylphenyl)carbamoylmethyl]-1,3-thiazol-4-ine hydrochloride]  89%
31. Cl.Cn1c(CC(=O)Nc2ccc(Cl)cc2)csc1=Nc1ccccc1F [Compound 160, 2-(2-fluorophenylimino)-3-methyl-4-[N-(4-chlorophenyl)carbamoylmethyl]-1,3-thiazol-4-ine hydrochloride]  88%
32. Cc1ccc(NC(=O)Cc2csc(=Nc3ccccc3F)n2C)cc1.Cl [Compound 167, 2-(2-fluorophenylimino)-3-methyl-4-[N-(4-methylphenyl)carbamoylmethyl]-1,3-thiazol-4-ine hydrochloride]  88%
33. CCCCc1ccc(N=c2scc(CC(=O)Nc3ccc(C#N)cc3)n2C)cc1.Cl [Compound 221, 2-[4-(n-butyl)phenylimino]-3-methyl-4-[N-(4-cyanophenyl)carbamoylmethyl]-4-thiazoline hydrochloride]  87%
34. CC(C)Oc1cc(N=c2scc(CC(=O)Nc3ccc(Cl)cc3)n2C)c(F)cc1Cl.Cl [Compound 161, 2-(4-chloro-5-isopropoxy-2-fluorophenylimino)-3-methyl-4-[N-(4-chlorophenyl)carbamoylmethyl]-1,3-thiazol-4-ine hydrochloride]  86%
